Source: ChEMBL document CHEMBL3228036, “A new chemical series active against African trypanosomes: benzyltriphenylphosphonium salts” (J Med Chem, 1979)
Activity calls are given as the source filed them.

Tests used:
[1] = system: Trypanosoma brucei rhodesiense; assay: […] activity against Trypanosoma brucei rhodesiense Wellcome CT infected in ICR/HA mouse assessed as curated mouse at 26.5 mg/kg, po treated within 2 hrs of parasite infection measured up to 30 days; assay type: functional, organism-based; set-up: dose 26.5 mg/kg
[2] = system: Mus musculus; assay: Toxicity in Trypanosoma brucei rhodesiense Wellcome CT infected ICR/HA mouse assessed as mortality at 424 mg/kg, po treated within 2 hrs of parasite infection measured up to 30 days; assay type: organism-based; set-up: dose 424 mg/kg, route oral; conditions: in vivo
[3] = system: Trypanosoma brucei rhodesiense; assay: […] activity against Trypanosoma brucei rhodesiense Wellcome CT infected in ICR/HA mouse assessed as curated mouse at 13.3 mg/kg, sc treated within 2 hrs of parasite infection measured up to 30 days; assay type: functional, organism-based; set-up: dose 13.3 mg/kg
[4] = system: Trypanosoma brucei rhodesiense; assay: […] activity against Trypanosoma brucei rhodesiense Wellcome CT infected in ICR/HA mouse assessed as curated mouse at 13.3 mg/kg, po treated within 2 hrs of parasite infection measured up to 30 days; assay type: functional, organism-based; set-up: dose 13.3 mg/kg
[5] = system: Trypanosoma brucei rhodesiense; assay: […] activity against Trypanosoma brucei rhodesiense Wellcome CT infected in ICR/HA mouse assessed as curated mouse at 53 mg/kg, po treated within 2 hrs of parasite infection measured up to 30 days; assay type: functional, organism-based; set-up: dose 53 mg/kg
[6] = system: Mus musculus; assay: Toxicity in Trypanosoma brucei rhodesiense Wellcome CT infected ICR/HA mouse assessed as mortality at 424 mg/kg, sc treated within 2 hrs of parasite infection measured up to 30 days; assay type: organism-based; set-up: dose 424 mg/kg, route subcutaneous; conditions: in vivo
[7] = system: Trypanosoma brucei rhodesiense; assay: […] activity against Trypanosoma brucei rhodesiense Wellcome CT infected in ICR/HA mouse assessed as curated mouse at 424 mg/kg, sc treated within 2 hrs of parasite infection measured up to 30 days; assay type: functional, organism-based; set-up: dose 424 mg/kg
[8] = system: Mus musculus; assay: Toxicity in Trypanosoma brucei rhodesiense Wellcome CT infected ICR/HA mouse assessed as mortality at 212 mg/kg, po treated within 2 hrs of parasite infection measured up to 30 days; assay type: organism-based; set-up: dose 212 mg/kg, route oral; conditions: in vivo
[9] = system: Trypanosoma brucei rhodesiense; assay: […] activity against Trypanosoma brucei rhodesiense Wellcome CT infected in ICR/HA mouse assessed as curated mouse at 212 mg/kg, po treated within 2 hrs of parasite infection measured up to 30 days; assay type: functional, organism-based; set-up: dose 212 mg/kg
[10] = system: Mus musculus; assay: Toxicity in Trypanosoma rhodesiense Wellcome CT infected ICR/HA mouse assessed as mortality at 106 mg/kg, sc treated within 2 hrs of parasite infection measured up to 30 days; assay type: organism-based; set-up: dose 106 mg/kg, route subcutaneous; conditions: in vivo
[11] = system: Trypanosoma brucei rhodesiense; assay: […] activity against Trypanosoma brucei rhodesiense Wellcome CT infected in ICR/HA mouse assessed as curated mouse at 106 mg/kg, po treated within 2 hrs of parasite infection measured up to 30 days; assay type: functional, organism-based; set-up: dose 106 mg/kg
[12] = system: Trypanosoma brucei rhodesiense; assay: […] activity against Trypanosoma brucei rhodesiense Wellcome CT infected in ICR/HA mouse assessed as curated mouse at 424 mg/kg, po treated within 2 hrs of parasite infection measured up to 30 days; assay type: functional, organism-based; set-up: dose 424 mg/kg
[13] = system: Trypanosoma brucei rhodesiense; assay: […] activity against Trypanosoma brucei rhodesiense Wellcome CT infected in ICR/HA mouse assessed as curated mouse at 26.5 mg/kg, sc treated within 2 hrs of parasite infection measured up to 30 days; assay type: functional

Measured: Activity

FC(F)(F)c1ccc(C[P+](c2ccccc2)(c2ccccc2)c2ccccc2)cc1.[Cl-]
Toxic: [2] | [6] | [8] | [10]
inactive: all other assays above
